The text below walks through data of paper PMC7828228, “Babesia Bovis Ligand-Receptor Interaction: AMA-1 Contains Small Regions Governing Bovine Erythrocyte Binding” (International Journal of Molecular Sciences, 2021).

The target of experiment [1] is bovine RBCs. The experiment can be described thus: Saturation assay of radiolabelled HABPs. Format: binding. As to conditions: saturation analysis; 7.5 × 10^7 RBCs, radiolabelled HABP 0–6000 nM, ± unlabelled peptide ~26 μM, 90 min at RT, 1:1 interaction model. The method, then: Modified binding assays were carried out to determine kinetic constants associated with B. bovis AMA-1 HABP binding interaction with bovine RBCs. Briefly, 7.5 × 10^7 RBCs were incubated with a wide range of concentrations of each radiolabelled HABP (0–6000 nM) in the absence or presence of unlabelled peptide (~26 μM) at final 245 μL volume. Samples were incubated for 90 min at RT and then washed twice with HBS before measuring cell-associated radioactivity on a gamma counter. Equilibrium dissociation constants (kD), equivalent to the ligand concentration (moles/litre) occupying half of the receptors, were calculated by equilibrium phase curve (using a 1:1 interaction model). Hill coefficients (nH) were calculated by taking saturation results; positive cooperativity was assumed if nH had values higher than 1 which could have been the result of a binding site’s increased affinity due to a ligand’s previous binding to another site. Conversely, nH values lower than 1 would have indicated negative cooperativity (also called antagonism) and the first ligand molecule’s binding would have reduced the probability of a second molecule binding.

The subject of experiment [2] is bovine erythrocytes. The experiment is described as follows: Radiolabelled peptide bovine erythrocyte binding assay (initial screen). Here is the method: Peptide selection was based on the degree of conservation and the presence of functionally constricted regions found throughout B. bovis ama-1 gene. Twelve peptides were synthesised using the tert-butoxycarbonyl (t-Boc) strategy and solid-phase synthesis methodology. Cysteine residues were replaced by serine residue to avoid oxidation; a tyrosine residue was added to peptides lacking one in their native sequences to enable radiolabelling. The peptides were analysed using reversed-phase high-performance liquid chromatography (RP-HPLC) and MALDI-TOF mass spectrometry (Bruker Daltonics) after having been cleaved by the low–high hydrogen fluoride technique. Every peptide (10 μL) diluted at 1mg/mL in 4-(2-hydroxyethyl)-1-piperazineethanesulphonic acid buffered saline (HBS) was individually radiolabelled for 15 min using 3 μL Na^125I (100 mCi/mL; ARC) and 15 μL chloramine T (2.75 mg/mL). […] A gamma counter (Packard Cobra II) was used for measuring/quantifying single samples’ radioactivity.
(§1) The assays for every B. bovis AMA-1-derived synthetic peptide binding to bovine erythrocytes were carried out as described for P. falciparum, with some modifications. […] HABP bovine erythrocyte binding selection criteria were determined according to that established for P. falciparum. […]

Experiment [3] has as its system trypsin-, chymotrypsin-, and neuraminidase-treated bovine erythrocytes. The experiment can be described thus: Binding assay with enzyme-treated erythrocytes. As to conditions: 37 °C, 1h 30 min, untreated RBC as control, SD below 5%. Here is the method: A blood sample was obtained by jugular venepuncture from a clinically healthy Normande 18month-old bull and collected in anticoagulant tubes. The animal was properly restrained/fastened and then its head was secured by a strap and rope. After locating the external jugular vein and applying pressure, the area was disinfected with ethanol for inserting the needle at a 30° angle and 20 mL blood samples were collected in tubes containing sodium citrate using the closed system. The above procedures and animal maintenance and handling were carried out at the Remanso farm, according to guidelines for the care of large animals established by Universidad de Ciencias Aplicadas y Ambientales (U.D.C.A)’s ethics committee (regulated by agreement No. 285/2008) using the protocol described in the minute 201901. The collected blood was washed thrice with HBS (1:1 ratio) to eliminate the sera and the leucocyte layer by spinning at 1600× g for 5 min for each run. A 60% erythrocyte solution was incubated at 37 °C for 1h 30 min with trypsin (1 mg/mL), chymotrypsin (1 mg/mL) and neuraminidase (100 μU/mL). After three washes using 250× g for 3 min, 4 × 10^5 erythrocytes were incubated with 5 μM […] at 37 °C for 45 min in the dark. An assay was carried out with erythrocytes treated at 37 °C for 30 min or with 0.05% or 0.005% triton X-100 for 15 min at room temperature (RT) for using them as cell lysis controls. A FACSC Canto II cytometer (BD) was used for determining cell viability by analysing 100,000 events.
as §1

Experiment [4] deals with bovine erythrocyte membrane receptor. The experiment is described as follows: Cross-linking assay (BS3, SDS-PAGE, autoradiography). Particulars: autoradiogram, Figure 2c. Format: binding. Here is the method: Cross-linking assays were used in triplicate for evaluating B. bovis AMA-1 interaction with any membrane receptor. The assay consisted of incubating radiolabelled peptide with 7.5 × 10^7 bovine erythrocytes (v/v) at RT for 2 h at 4 rpm. A competition assay was used as control using an excess of non-radiolabelled peptide. The mixture was incubated for two hours at RT with 0.4 µg/mL bis(sulphosuccinimidyl) suberate (BS3) and then washed thrice with HBS. The cells were then lysed in 30 µL lysis buffer (15 µL buffer A (50 mM Tris-HCl, 100 mM NaCl and 0.1 mM EDTA) and 15 µL buffer B (0.5 M Tris-HCl, 10% SDS (w/v), 25% glycerol, 0.5% (w/v) bromophenol blue and […] β-mercaptoethanol, pH 6.8)) and spun at 14,000× g for 10 min. SDS-PAGE was used for separating the proteins and radioactivity signals were observed by autoradiography. Radiolabelled peptide 43437 (1 µM) binding competition assay involved using different non-radiolabelled peptide 42438 concentrations (0–160 µM).

Experiment [5] has as its target receptor on bovine erythrocytes having an apparent 75 kDa molecular weight (bovine (endogenous in bovine erythrocytes)). The experiment is described as follows: radioligand binding; as the screen but on erythrocytes treated beforehand with trypsin (1 mg/mL), chymotrypsin (1 mg/mL) or neuraminidase (100 μU/mL); 1 h at 37 °C without shaking; untreated erythrocytes as control.

For experiment [6] the target is unchanged. The experiment is described as follows: radioligand binding; saturation: 7.5 x 10^7 bovine erythrocytes, 125I-peptide 0-6000 nM without or with ~26 μM unlabelled peptide, 245 μL, 90 min at RT, HBS washes; 1:1 model, Hill plot.

Ends that are not written are not given here. A value given as a limit tells only on which side of the number the result lay.

Turning to CPMHPVRDAIFGKWSGGSCV [compound 42443], the Kd in experiment [1] worked out at 2.4 µM. In addition, in experiment [2] (7.5 × 10^7 normal cells, 2 h at RT, radiolabelled peptide 20–200 nM, absence or presence of non-radiolabelled peptide 20 μM, 200 μL, triplicate, HABP if slope ≥0.01 (1%)), the “specific binding slope (binding activity)” value is recorded as above 0.01. Also, the “reduction of binding with chymotrypsin-treated erythrocytes” value in experiment [3] (erythrocytes treated with chymotrypsin 1 mg/mL) was determined as 46%. The “reduction of binding with neuraminidase-treated erythrocytes” value in experiment [3] (erythrocytes treated with neuraminidase 100 μU/mL) was determined as 42%. Also, the “reduction of binding with trypsin-treated erythrocytes” value in experiment [3] (erythrocytes treated with trypsin 1 mg/mL) was “a lesser effect”. Further, the “intensity of cross-linking interaction with the receptor” value in experiment [4] is “significantly less intense”.

Consider RGVGMNWATYDKDSG [^395R-G^409], for which the “interaction with bovine erythrocytes (binding activity, in words)” value in experiment [2] (radiolabelled peptide-cell interaction assay, Figure 1b) is listed as “did not interact with bovine erythrocytes”.

B1: B. bovis AMA-1 Domain I-derived peptide 42437 (peptide)
peptide: YMQKFDIPRNHGSGIYVDLG
modifications: also: 125I radio-iodination, site not given here
As for B1, in experiment [5], the percent reduction of binding, chymotrypsin-treated against untreated erythrocytes was found to be 58%; the percent reduction of binding, neuraminidase-treated against untreated erythrocytes worked out at 36%; the percent reduction of binding, trypsin-treated against untreated erythrocytes stood at 31%. The Kd in experiment [6] is 1.1 µM.

B2: B. bovis AMA-1 Domain I-derived peptide 42438 (peptide)
peptide: GYESVGSKSYRMPVGKSPVV
modifications: also: 125I radio-iodination in tracer use, site not given here
As for B2, the percent reduction of binding, chymotrypsin-treated against untreated erythrocytes in experiment [5] was determined as 66%. Also, the Kd in experiment [6] was determined as 1.3 µM.
